# Experimental data published in patent US10023558B2, “Compounds” (CHIESI FARMACEUTICI S.P.A., priority 2016, dated 2018).
# Target: T1, human neutrophil elastase (HNE) (Homo sapiens, UniProt P08246)
# T1 construct: purchased Sigma E8140
# T1 sequence (P08246 30-247 limits assumed): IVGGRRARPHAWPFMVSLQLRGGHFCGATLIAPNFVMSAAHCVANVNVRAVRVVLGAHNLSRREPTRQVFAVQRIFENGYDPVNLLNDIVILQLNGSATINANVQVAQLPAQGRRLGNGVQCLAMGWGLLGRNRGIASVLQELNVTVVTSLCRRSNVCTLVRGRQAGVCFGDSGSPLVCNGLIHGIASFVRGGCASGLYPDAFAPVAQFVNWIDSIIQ
# Experiment: HNE Enzyme Assay (fluorogenic peptide substrate MeOSuc-Ala-Ala-Pro-Val-AMC)
# Assay type: biochemical
# Details: human leukocyte elastase 0.00072 U/mL, substrate 100 μM, 25° C., 30 minutes, at least two separate experiments; read-out: HNE inhibition (IC50 values)
# Experimental: Compounds of this invention were tested for potency in a human neutrophil elastase (HNE) enzyme activity assay.
# Assays were performed in 96-well plates in a total assay volume of 100 μL. The final concentration of elastase enzyme (human leukocyte elastase, Sigma E8140) was 0.00072 U/mL. The peptide substrate (MeOSuc-Ala-Ala-Pro-Val-AMC, Calbiochem #324740) was used at a final concentration of 100 μM. The final concentration of DMSO was 1% in the assay buffer (0.05M Tris.HCl, 0.1M NaCl, 0.1M CaCl2, 0.0005% Brij-35, pH 7.5). The enzymatic reaction was started by addition of the enzyme and incubated at 25° C. for 30 minutes. After incubation, the reaction was stopped by addition of soybean trypsin inhibitor (Sigma T9003) at a final concentration of 50 μg/well. Fluorescence was measured using a Molecular Devices fluorescence plate reader using 380 nm excitation and 460 nm emission wavelengths.
# A concentration response to each compound was performed and the effect of compound in each experiment was expressed as a percentage inhibition of the control enzyme fluorescence. Dose response curves were plotted and compound potency (IC50) was determined. Compounds were tested in at least two separate experiments.
row,SMILES,IC50 [nM]
1,"Cc1c(-c2ccnn2-c2ccc(C#N)cc2)n(C(=O)NC(C)c2nc(C[N+](C)(C)C)cs2)c(=O)n1-c1cccc(C(F)(F)F)c1 (racemic) [Example 85, ±[2-(1-{[5-[2-(4-Cyano-phenyl)-2H-pyrazol-3-yl]-4-methyl-2-oxo-3-(3-trifluoromethyl-phenyl)-2,3-dihydro-imidazole-1-carbonyl]-amino}-ethyl)-thiazol-4-ylmethyl]-trimethyl-ammonium benzene sulfonate]",< 1
2,"Cc1c(-c2ccnn2-c2ccc(C#N)cc2)n(C(=O)N[C@H]2CC[C@H](CN(C)C)CC2)c(=O)n1-c1cccc(C(F)(F)F)c1 [Example 1, 5-[2-(4-Cyano-phenyl)-2H-pyrazol-3-yl]-4-methyl-2-oxo-3-(3-trifluoromethyl-phenyl)-2,3-dihydro-imidazole-1-carboxylic acid trans-(4-dimethylaminomethyl-cyclohexyl)-amide]",< 1
3,"Cc1c(-c2ccnn2-c2ccc(C#N)cc2)n(C(=O)N[C@H]2CCC[C@@H]2OCc2ccccc2)c(=O)n1-c1cccc(C(F)(F)F)c1 [Example 2, 5-[2-(4-Cyano-phenyl)-2H-pyrazol-3-yl]-4-methyl-2-oxo-3-(3-trifluoromethyl-phenyl)-2,3-dihydro-imidazole-1-carboxylic acid ((1S,2S)-2-benzyloxy-cyclopentyl)-amide]",1 to 10
4,"Cc1c(-c2ccnn2-c2ccc(C#N)cc2)n(C(=O)NC2CCN(C(=O)OCc3ccccc3)CC2)c(=O)n1-c1cccc(C(F)(F)F)c1 [Example 3, 4-{[5-[2-(4-Cyano-phenyl)-2H-pyrazol-3-yl]-4-methyl-2-oxo-3-(3-trifluoromethyl-phenyl)-2,3-dihydro-imidazole-1-carbonyl]-amino}-piperidine-1-carboxylic acid benzyl ester]",< 1
5,"Cc1c(-c2ccnn2-c2ccc(C#N)cc2)n(C(=O)NC2CCN(C(=O)C(F)(F)F)CC2)c(=O)n1-c1cccc(C(F)(F)F)c1 [Example 4, 5-[2-(4-Cyano-phenyl)-2H-pyrazol-3-yl]-4-methyl-2-oxo-3-(3-trifluoromethyl-phenyl)-2,3-dihydro-imidazole-1-carboxylic acid [1-(2,2,2-trifluoro-acetyl)-piperidin-4-yl]-amide]",< 1
6,"Cc1c(-c2ccnn2-c2ccc(C#N)cc2)n(C(=O)N[C@@H](C)c2ccncc2)c(=O)n1-c1cccc(C(F)(F)F)c1 [Example 5, 5-[2-(4-Cyano-phenyl)-2H-pyrazol-3-yl]-4-methyl-2-oxo-3-(3-trifluoromethyl-phenyl)-2,3-dihydro-imidazole-1-carboxylic acid ((S)-1-pyridin-4-yl-ethyl)-amide]",< 1
7,"Cc1c(-c2ccnn2-c2ccc(C#N)cc2)n(C(=O)N[C@H](C)c2ccncc2)c(=O)n1-c1cccc(C(F)(F)F)c1 [Example 6, 5-[2-(4-Cyano-phenyl)-2H-pyrazol-3-yl]-4-methyl-2-oxo-3-(3-trifluoromethyl-phenyl)-2,3-dihydro-imidazole-1-carboxylic acid ((R)-1-pyridin-4-yl-ethyl)-amide]",< 1
8,"COc1ccc(CN2CC3C(C2)C3NC(=O)n2c(-c3ccnn3-c3ccc(C#N)cc3)c(C)n(-c3cccc(C(F)(F)F)c3)c2=O)cc1 (stereo not shown) [Example 7, 5-[2-(4-Cyano-phenyl)-2H-pyrazol-3-yl]-4-methyl-2-oxo-3-(3-trifluoromethyl-phenyl)-2,3-dihydro-imidazole-1-carboxylic acid [3-(4-methoxy-benzyl)-3-aza-bicyclo[3.1.0]hex-6-yl]-amide]",< 1
9,"Cc1c(-c2ccnn2-c2ccc(C#N)cc2)n(C(=O)N[C@H]2CC[C@H](NC(=O)OC(C)(C)C)CC2)c(=O)n1-c1cccc(C(F)(F)F)c1 [Example 8, (Trans-4-{[5-[2-(4-cyano-phenyl)-2H-pyrazol-3-yl]-4-methyl-2-oxo-3-(3-trifluoromethyl-phenyl)-2,3-dihydro-imidazole-1-carbonyl]-amino}-cyclohexyl)-carbamic acid tert-butyl ester]",< 1
10,"Cc1c(-c2ccnn2-c2ccc(C#N)cc2)n(C(=O)N[C@H]2CC[C@H](N(C)C)CC2)c(=O)n1-c1cccc(C(F)(F)F)c1 [Example 9, 5-[2-(4-Cyano-phenyl)-2H-pyrazol-3-yl]-4-methyl-2-oxo-3-(3-trifluoromethyl-phenyl)-2,3-dihydro-imidazole-1-carboxylic acid (trans-4-dimethylamino-cyclohexyl)-amide]",< 1
11,"Cc1c(-c2ccnn2-c2ccc(C#N)cc2)n(C(=O)N[C@@H]2C[C@@H]3CN(C(=O)OC(C)(C)C)C[C@@H]3C2)c(=O)n1-c1cccc(C(F)(F)F)c1 [Example 10, (3aS,5R,6aR)-5-{[5-[2-(4-Cyano-phenyl)-2H-pyrazol-3-yl]-4-methyl-2-oxo-3-(3-trifluoromethyl-phenyl)-2,3-dihydro-imidazole-1-carbonyl]-amino}-hexahydro-cyclopenta[c]pyrrole-2-carboxylic acid tert-butyl ester]",< 1
12,"Cc1c(-c2ccnn2-c2ccc(C#N)cc2)n(C(=O)N[C@@H](C)C(=O)N2CCN(C)CC2)c(=O)n1-c1cccc(C(F)(F)F)c1 [Example 11, 5-[2-(4-Cyano-phenyl)-2H-pyrazol-3-yl]-4-methyl-2-oxo-3-(3-trifluoromethyl-phenyl)-2,3-dihydro-imidazole-1-carboxylic acid [(S)-1-methyl-2-(4-methyl-piperazin-1-yl)-2-oxo-ethyl]-amide]",< 1
13,"Cc1c(-c2ccnn2-c2ccc(C#N)cc2)n(C(=O)N[C@H]2C[C@@H]3CN(C(=O)OC(C)(C)C)C[C@@H]3C2)c(=O)n1-c1cccc(C(F)(F)F)c1 [Example 12, (3aR,5S,6aS)-5-{[5-[2-(4-Cyano-phenyl)-2H-pyrazol-3-yl]-4-methyl-2-oxo-3-(3-trifluoromethyl-phenyl)-2,3-dihydro-imidazole-1-carbonyl]-amino}-hexahydro-cyclopenta[c]pyrrole-2-carboxylic acid tert-butyl ester]",< 1
14,"Cc1c(-c2ccnn2-c2ccc(C#N)cc2)n(C(=O)N[C@@H](C)C(=O)NC2CCN(C)CC2)c(=O)n1-c1cccc(C(F)(F)F)c1 [Example 13, 5-[2-(4-Cyano-phenyl)-2H-pyrazol-3-yl]-4-methyl-2-oxo-3-(3-trifluoromethyl-phenyl)-2,3-dihydro-imidazole-1-carboxylic acid [(S)-1-(1-methyl-piperidin-4-ylcarbamoyl)-ethyl]-amide]",< 1
15,"Cc1c(-c2ccnn2-c2ccc(C#N)cc2)n(C(=O)N[C@@H](C)c2ccc(CN(C)C)cc2)c(=O)n1-c1cccc(C(F)(F)F)c1 [Example 14, 5-[2-(4-Cyano-phenyl)-2H-pyrazol-3-yl]-4-methyl-2-oxo-3-(3-trifluoromethyl-phenyl)-2,3-dihydro-imidazole-1-carboxylic acid [(S)-1-(4-dimethylaminomethyl-phenyl)-ethyl]-amide]",< 1
16,"Cc1c(-c2ccnn2-c2ccc(C#N)cc2)n(C(=O)NC2CCN(C(=O)CCN(C)C)CC2)c(=O)n1-c1cccc(C(F)(F)F)c1 [Example 15, 5-[2-(4-Cyano-phenyl)-2H-pyrazol-3-yl]-4-methyl-2-oxo-3-(3-trifluoromethyl-phenyl)-2,3-dihydro-imidazole-1-carboxylic acid [1-(3-dimethylamino-propionyl)-piperidin-4-yl]-amide]",< 1
